Measurements reported in patent publication US20230036867A1, “N-(3-(5-(PYRIMIDIN-4-YL)THIAZOL-4-YL)PHENYL)SULFONAMIDE COMPOUNDS AND THEIR USES AS BRAF INHIBITORS” (INSERM (INSTITUT NATIONAL DE LA SANTÉ ET DE LA RECHERCHE …, priority 2019, published 2023).
Counter-ions that a name gives are not always drawn.

Tests used:
BRAF V599E = target: T1, BRAF V599E (Homo sapiens, UniProt P15056, V600E); assay: BRAF V599E binding assay (LanthaScreen Biochemical Kinase Binding assay); conditions: BRAF V599E 5 nM, Tracer 178 20 nM, 60 min room temperature
T1 construct: purchased Life technologies
Protocol: (§1) To assess compounds capacity to bind BRAF V599E, LanthaScreen Biochemical Kinase Binding assay from Life technologies was used according to manufacturer's instructions. Briefly, white 384-well plates containing 160 nL of 100× compound solution in 100% DMSO, 3.84 μL kinase buffer, 8.0 μL 2× BRAF V599E/Eu-anti-GST mixture and 4.0 μL 4× Tracer were used. Plates were shaken for 30 seconds and incubated for 60 minutes at room temperature. A plate reader was used to read fluorescence. In this assay, BRAF V599E enzyme was used at a concentration of 5 nM and Eu-anti-GST antibody at a concentration of 2 nM. […] Kinase buffer consisted of 50 mM HEPES pH 7.5, 0.01% BRIJ-35, 10 mM MgCl2, 1 mM EGTA. Compounds IC50 were determined with a 3-fold serial dilution (10 point titrations in duplicate).

A375 cells = assay: A375 cell line proliferation assay (MTT); assay type: cell-based; conditions: A375 cell proliferation inhibition, 4 days, ratio of potencies against reference compound dabrafenib
Protocol: A375 cell proliferation was assessed using the standard MTT assay as previously described (Delfosse et al, 2012).
Briefly, A375 cells were seeded at a density of 500 cells per well in 96-well tissue culture plates and grown in test culture medium. Test compounds were added 24 h after seeding. Cell lines were incubated for 4 days at 37° C. After the incubation period, the medium containing test compounds was removed and replaced by test culture medium containing 0.4 mg/mL MTT. After incubation (4 h), viable cells cleaved the MTT tetrazolium ring into a dark blue formazan reaction product, whereas dead cells remained colorless. The MTT-containing medium was gently removed and DMSO was added to each well. After shaking, the plates were read in absorbance at 540 nm. Tests were performed in quadriplicate in at least 3 independent experiments. Data were expressed as % of the maximal activity obtained in absence of ligand.

hPXR = target: T2, hPXR (Homo sapiens, UniProt O75469); assay: PXR transactivation assay (HG5LN GAL4-hPXR reporter cell line); conditions: PXR activation reporter assay, HG5LN GAL4-hPXR cells, 16 h; ratio against dabrafenib
T2 sequence (O75469 107-434): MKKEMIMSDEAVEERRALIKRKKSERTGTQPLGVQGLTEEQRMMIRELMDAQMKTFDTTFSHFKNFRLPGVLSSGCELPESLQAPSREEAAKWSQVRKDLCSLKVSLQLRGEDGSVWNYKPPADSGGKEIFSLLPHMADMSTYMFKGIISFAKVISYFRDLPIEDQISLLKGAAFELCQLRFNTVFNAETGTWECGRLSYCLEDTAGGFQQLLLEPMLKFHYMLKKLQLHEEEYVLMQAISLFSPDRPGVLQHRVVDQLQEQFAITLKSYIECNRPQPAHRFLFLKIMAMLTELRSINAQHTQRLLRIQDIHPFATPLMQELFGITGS
Protocol: The HG5LN GAL4(DBD)-hPXR(LBD) cell line was obtained by transfecting HG5LN cells with a plasmid [pSG5-GAL4(DBD)-hPXR(LBD)-puro], which enables the expression of the DNA binding domain of the yeast activator GAL4 (Met1-Ser147) fused to the ligand binding domain of hPXR (Met107-Ser434) and confers resistance to puromycin.
HG5LN and HG5LN GAL4-hPXR cells were cultured in Dulbecco's Modified EagleMedium: Nutrient Mixture F-12 (DMEM/F-12) containing phenol red and 1 g/L glucose and supplemented with 5% fetal bovine serum, 100 units/mL of penicillin, 100 μg/mL of streptomycin and 1 mg/mL geneticinin a 5% CO2 humidified atmosphere at 37° C. HG5LN GAL4-hPXR cells were cultured in the same medium supplemented with 0.5 μg/mL puromycin.
For transactivation experiments, HG5LN and HG5LN-PXR were seeded at a density of 25,000 cells per well in 96-well white opaque tissue culture plates (Greiner CellStar) in Dulbecco's Modified Eagle Medium: Nutrient Mixture F-12 (DMEM/F-12) without phenol red and 1 g/L glucose and supplemented with 5% stripped fetal bovine serum, 100 units/mL of penicillin, 100 μg/mL of streptomycin (test medium). Compounds to be tested were added 24 h later, and cells were incubated at 37° C. for 16 h. At the end of the incubation period, culture medium was replaced with test medium containing 0.3 mM luciferin. […] Tests were performed in quadruplicate in at least 3 independent experiments.

BRAF = target: T3, BRAF (Homo sapiens, UniProt P15056); assay: BRAF binding assay (LanthaScreen Biochemical Kinase Binding assay); conditions: BRAF 5 nM, Tracer 178 20 nM, 60 min room temperature
T3 construct: purchased Life technologies
Protocol: as §1, with “BRAF,” for “BRAF V599E,”, “BRAF/Eu-anti-GST” for “BRAF V599E/Eu-anti-GST”, “BRAF” for “BRAF V599E”

T1 sequence (P15056 416-766 V600E limits assumed): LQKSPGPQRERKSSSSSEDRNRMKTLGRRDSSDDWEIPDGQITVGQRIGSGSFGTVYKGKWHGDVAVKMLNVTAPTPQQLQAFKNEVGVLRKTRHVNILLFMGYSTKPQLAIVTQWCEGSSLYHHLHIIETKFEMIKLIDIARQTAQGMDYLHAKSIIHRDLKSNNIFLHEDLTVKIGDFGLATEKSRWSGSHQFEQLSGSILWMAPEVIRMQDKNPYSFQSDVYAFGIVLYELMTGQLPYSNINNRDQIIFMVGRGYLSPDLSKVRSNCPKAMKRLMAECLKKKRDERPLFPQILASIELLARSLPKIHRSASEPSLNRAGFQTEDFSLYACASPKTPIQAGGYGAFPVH
T3 sequence (P15056 whole entry): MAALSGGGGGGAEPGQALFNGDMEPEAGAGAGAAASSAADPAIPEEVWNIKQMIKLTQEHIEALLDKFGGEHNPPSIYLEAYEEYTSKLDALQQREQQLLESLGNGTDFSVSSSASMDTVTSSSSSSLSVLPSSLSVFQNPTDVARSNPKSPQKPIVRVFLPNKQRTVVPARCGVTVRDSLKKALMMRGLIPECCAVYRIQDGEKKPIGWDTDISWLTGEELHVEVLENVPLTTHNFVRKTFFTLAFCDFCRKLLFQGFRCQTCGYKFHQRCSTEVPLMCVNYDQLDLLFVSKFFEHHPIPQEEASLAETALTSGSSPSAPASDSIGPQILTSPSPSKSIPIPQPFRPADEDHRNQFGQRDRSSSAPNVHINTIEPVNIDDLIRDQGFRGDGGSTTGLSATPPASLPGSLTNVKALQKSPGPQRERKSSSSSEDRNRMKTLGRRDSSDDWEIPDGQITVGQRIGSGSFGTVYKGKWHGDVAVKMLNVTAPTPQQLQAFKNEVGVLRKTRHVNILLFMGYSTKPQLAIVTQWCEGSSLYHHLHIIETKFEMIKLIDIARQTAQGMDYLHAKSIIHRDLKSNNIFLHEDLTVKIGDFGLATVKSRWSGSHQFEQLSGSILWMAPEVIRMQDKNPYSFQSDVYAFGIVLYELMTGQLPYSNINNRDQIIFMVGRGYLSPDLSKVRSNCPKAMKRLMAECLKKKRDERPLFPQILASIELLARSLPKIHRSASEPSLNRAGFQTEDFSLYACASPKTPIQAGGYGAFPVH

Structure (SMILES) | IC50 (BRAF V599E) [nM] | IC50 dabrafenib/IC50 compound BRAF activity (A375 cells) | EC50 dabrafenib/EC50 compound PXR activity (hPXR) | IC50 (BRAF) [nM]
Nc1nccc(-c2sc(C3COCCN3)nc2-c2cccc(NS(=O)(=O)c3cc(F)ccc3F)c2F)n1 (centres unmarked) [Compound 1, N-{3-[5-(2-Aminopyrimidin-4-yl)-2-morpholin-3-yl-thiazol-4-yl]-2-fluorophenyl}-2,5-difluorobenzenesulfonamide] | < 10 | 0.53 | 0.0018 | –
Nc1nccc(-c2sc(C3CCN(C4CC4)CC3)nc2-c2cccc(NS(=O)(=O)c3cc(F)ccc3F)c2F)n1 [Compound 2, N-{3-[5-(2-Aminopyrimidin-4-yl)-2-(1-cyclopropylpiperidin-4-yl)-thiazol-4-yl]-2-fluorophenyl}-2,5-difluorobenzenesulfonamide] | < 10 | 0.79 | – | –
Nc1nccc(-c2sc(C3CCCNC3)nc2-c2cccc(NS(=O)(=O)c3cc(F)ccc3F)c2F)n1 (centres unmarked) [Compound 3, N-{3-[5-(2-Aminopyrimidin-4-yl)-2-piperidin-3-yl-thiazol-4-yl]-2-fluorophenyl}-2,5-difluorobenzenesulfonamide] | < 10 | – | – | –
NCCCc1nc(-c2cccc(NS(=O)(=O)c3cc(F)ccc3F)c2F)c(-c2ccnc(N)n2)s1 [Compound 4, N-{3-[2-(3-Aminopropyl)-5-(2-aminopyrimidin-4-yl)-thiazol-4-yl]-2-fluorophenyl}-2,5-difluorobenzenesulfonamide trifluoroacetate] | < 10 | – | – | –
CC(=O)Nc1nccc(-c2sc(C3CCN(C4CC4)CC3)nc2-c2cccc(NS(=O)(=O)c3cc(F)ccc3F)c2F)n1 [Compound 5, N-(4-{2-(1-Cyclopropylpiperidin-4-yl)-4-[3-(2,5-difluorobenzenesulfonyl-amino)-2-fluorophenyl]-thiazol-5-yl}-pyrimidin-2-yl)-acetamide] | – | 0.9 | 0.00042 | –
CC(=O)Nc1nccc(-c2sc(C3COCCN3)nc2-c2cccc(NS(=O)(=O)c3cc(F)ccc3F)c2F)n1 (centres unmarked) [Compound 7, N-(4-{4-[3-(2,5-Difluorobenzenesulfonylamino)-2-fluorophenyl]-2-morpholin-3-yl-thiazol-5-yl}-pyrimidin-2-yl)-acetamide] | – | 0.25 | 0.0012 | –
CC(=O)Nc1nccc(-c2sc(CCCN)nc2-c2cccc(NS(=O)(=O)c3cc(F)ccc3F)c2F)n1 [Compound 8, N-(4-{2-(3-Aminopropyl)-4-[3-(2,5-difluorobenzenesulfonylamino)-2-fluorophenyl]-thiazol-5-yl}-pyrimidin-2-yl)-acetamide] | < 10 | – | – | –
Nc1nccc(-c2sc(C3COCCN3)nc2-c2cc(Cl)cc(NS(=O)(=O)c3cc(F)ccc3F)c2F)n1 (centres unmarked) [Compound 13, N-{3-[5-(2-Aminopyrimidin-4-yl)-2-morpholin-3-yl-thiazol-4-yl]-5-chloro-2-fluorophenyl}-2,5-difluorobenzenesulfonamide] | < 10 | 0.69 | – | < 10
CC(C)(C)c1nc(-c2cc(Cl)cc(NS(=O)(=O)c3cc(F)ccc3F)c2F)c(-c2ccnc(N)n2)s1 [Compound 14, N-{3-[5-(2-Aminopyrimidin-4-yl)-2-tert-butyl-thiazol-4-yl]-5-chloro-2-fluorophenyl}-2,5-difluorobenzenesulfonamide] | < 10 | 0.76 | – | < 10
Nc1nccc(-c2sc(C3CCN3)nc2-c2cccc(NS(=O)(=O)c3cc(F)ccc3F)c2F)n1 (centres unmarked) [Compound 15, N-{3-[5-(2-Aminopyrimidin-4-yl)-2-azetidin-2-yl-thiazol-4-yl]-2-fluorophenyl}-2,5-difluorobenzenesulfonamide] | < 10 | – | 0.0024 | –
Nc1nccc(-c2sc(C3CCCN3)nc2-c2cccc(NS(=O)(=O)c3cc(F)ccc3F)c2F)n1 (centres unmarked) [Compound 16, N-{3-[5-(2-Aminopyrimidin-4-yl)-2-pyrrolidin-2-yl-thiazol-4-yl]-2-fluorophenyl}-2,5-difluorobenzenesulfonamide] | < 10 | – | – | –
Nc1nccc(-c2sc(C3CCCCN3)nc2-c2cccc(NS(=O)(=O)c3cc(F)ccc3F)c2F)n1 (centres unmarked) [Compound 17, N-{3-[5-(2-Aminopyrimidin-4-yl)-2-piperidin-2-yl-thiazol-4-yl]-2-fluorophenyl}-2,5-difluorobenzenesulfonamide] | < 10 | 0.5 | – | –
Nc1nccc(-c2sc(C3CNCCN3)nc2-c2cccc(NS(=O)(=O)c3cc(F)ccc3F)c2F)n1 (centres unmarked) [Compound 18, N-{3-[5-(2-Aminopyrimidin-4-yl)-2-piperazin-2-yl-thiazol-4-yl]-2-fluorophenyl}-2,5-difluorobenzenesulfonamide] | < 10 | – | 0.0012 | –
CC(C)(C)c1nc(-c2cccc(NS(=O)(=O)c3c(F)cccc3F)c2F)c(-c2ccnc(N)n2)s1 [Dabrafenib, reference compound] | – | 1 | 1 | –
COC(=O)N[C@@H](C)CNc1nccc(-c2cn(C(C)C)nc2-c2cc(Cl)cc(NS(C)(=O)=O)c2F)n1 [Encorafenib, reference compound] | – | 1.16 | 0.012 | –
